Broadly, the IC50 is the concentration that inhibits the measured activity by half.

Assay type in all cases: biochemical
The target of one assay is T1, 15-LO (Oryctolagus cuniculus, UniProt P12530).
T1 construct: endogenous in cells; host or cells: rabbit reticulocytes
T1 sequence (P12530 1-663): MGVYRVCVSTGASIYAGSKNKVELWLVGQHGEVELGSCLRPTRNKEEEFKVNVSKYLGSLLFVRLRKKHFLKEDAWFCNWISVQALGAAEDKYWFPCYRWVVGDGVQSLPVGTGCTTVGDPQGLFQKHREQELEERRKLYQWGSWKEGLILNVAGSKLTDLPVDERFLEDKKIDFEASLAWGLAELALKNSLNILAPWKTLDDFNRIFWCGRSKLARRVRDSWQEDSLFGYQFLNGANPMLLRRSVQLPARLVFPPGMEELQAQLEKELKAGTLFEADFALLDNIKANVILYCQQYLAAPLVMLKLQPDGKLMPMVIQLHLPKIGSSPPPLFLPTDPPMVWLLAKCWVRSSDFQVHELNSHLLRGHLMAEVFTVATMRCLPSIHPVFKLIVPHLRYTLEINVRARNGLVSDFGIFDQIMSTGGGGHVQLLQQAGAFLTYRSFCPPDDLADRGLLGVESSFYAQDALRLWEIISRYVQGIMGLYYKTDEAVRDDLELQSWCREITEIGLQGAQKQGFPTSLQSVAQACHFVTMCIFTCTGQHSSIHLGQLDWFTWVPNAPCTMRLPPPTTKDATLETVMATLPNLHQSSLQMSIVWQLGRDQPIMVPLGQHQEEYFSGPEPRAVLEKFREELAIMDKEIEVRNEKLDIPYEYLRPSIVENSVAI
Description: 15-LO assay (13-HPODE, spectrophotometric). The settings on record: rabbit reticulocytes; 13-HPODE spectrophotometrically. On the procedure:
(§1) 5-LO and 15-LO assays: Human peripheral blood mononuclear cells (PBMC) cells and rabbits reticulocytes were used in the 5-LO and 15-LO bioassays, and the assays were conducted according to the protocols reported previously, with either linoleic acid or arachidonic acid as substrates. LO activity was measured by quantifying immunodetectable Leukotriene B4 (LTB4) specifically with enzyme immunoassay (EIA) in the 5-LO assay, or monitoring 13-hydroperoxy-9,11-octadecadienoic acid (13-HPODE) spectrophotometrically in the 15-LO assay.
(§2) The results were expressed as either percentage inhibition, or IC50, for test samples and data represent the average ±SD of at least triplicate determinations.

The target in a further assay is T2, Human recombinant COX-2 (Homo sapiens, UniProt P35354).
T2 construct: purchased Sigma C-0858; host or cells: insect Sf21 cells
T2 sequence (P35354 18-604): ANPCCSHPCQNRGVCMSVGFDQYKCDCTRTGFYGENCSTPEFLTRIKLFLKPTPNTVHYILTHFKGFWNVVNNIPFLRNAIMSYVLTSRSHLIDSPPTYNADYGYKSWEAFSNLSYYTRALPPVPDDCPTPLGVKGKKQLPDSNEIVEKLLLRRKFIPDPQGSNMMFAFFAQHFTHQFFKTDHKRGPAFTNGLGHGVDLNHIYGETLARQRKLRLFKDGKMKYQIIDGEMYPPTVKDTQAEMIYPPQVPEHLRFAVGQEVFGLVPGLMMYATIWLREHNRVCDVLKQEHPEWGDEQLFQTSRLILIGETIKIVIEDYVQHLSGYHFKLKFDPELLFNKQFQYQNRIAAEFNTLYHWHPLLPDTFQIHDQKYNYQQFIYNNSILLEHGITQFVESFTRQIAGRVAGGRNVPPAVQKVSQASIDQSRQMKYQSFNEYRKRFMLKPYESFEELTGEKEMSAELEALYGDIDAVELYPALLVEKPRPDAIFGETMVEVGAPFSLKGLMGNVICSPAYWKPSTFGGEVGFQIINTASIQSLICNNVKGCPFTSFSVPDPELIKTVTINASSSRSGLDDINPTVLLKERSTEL
The experiment in a line: COX-2 inhibition assay (PGE2 EIA). The note with it: human recombinant COX-2 expressed in Sf21 cells; 0.3 μM arachidonic acid. On the procedure: COX-1 and COX-2 assays: COX-1 and -2 Inhibition assays were performed by the methods described previously with minor modifications. COX-2 enzyme was purchased from Sigma (Catalog # C-0858), and the PGE2 EIA kit from Amersham (Catalog # RPN 220). Human recombinant COX-2, expressed in insect Sf21 cells, and human platelets, respectively, were used in the COX-2 and COX-1 assays. The extract and partitions were dissolved in DMSO (Sigma, USA), and tested at 100 μg/mL (final concentration). The pure compounds were initially tested at 30 μM. […] Test samples were preincubated with 0.12 μg/ml enzyme in modified Tris-HCl buffer pH 7.7 (COX-2), and with cells (5×10^7/ml), in modified HEPES buffer pH 7.4 (COX-1) for 15 minutes at 37° C. The reactions were initiated by addition of 0.3 μM arachidonic acid (COX-2), and 100 μM arachidonic acid (COX-1), respectively, for another 5-minute incubation period, then terminated by further addition of 1 N HCl. An aliquot was then combined with the EIA kit for spectrophotometric determination of the quantity of PGE2 formed.
as §2

Another assay has as its target T3, 5-LO (Homo sapiens, UniProt P09917).
T3 construct: endogenous in cells; host or cells: human peripheral blood mononuclear cells (PBMC)
T3 sequence (P09917 1-674): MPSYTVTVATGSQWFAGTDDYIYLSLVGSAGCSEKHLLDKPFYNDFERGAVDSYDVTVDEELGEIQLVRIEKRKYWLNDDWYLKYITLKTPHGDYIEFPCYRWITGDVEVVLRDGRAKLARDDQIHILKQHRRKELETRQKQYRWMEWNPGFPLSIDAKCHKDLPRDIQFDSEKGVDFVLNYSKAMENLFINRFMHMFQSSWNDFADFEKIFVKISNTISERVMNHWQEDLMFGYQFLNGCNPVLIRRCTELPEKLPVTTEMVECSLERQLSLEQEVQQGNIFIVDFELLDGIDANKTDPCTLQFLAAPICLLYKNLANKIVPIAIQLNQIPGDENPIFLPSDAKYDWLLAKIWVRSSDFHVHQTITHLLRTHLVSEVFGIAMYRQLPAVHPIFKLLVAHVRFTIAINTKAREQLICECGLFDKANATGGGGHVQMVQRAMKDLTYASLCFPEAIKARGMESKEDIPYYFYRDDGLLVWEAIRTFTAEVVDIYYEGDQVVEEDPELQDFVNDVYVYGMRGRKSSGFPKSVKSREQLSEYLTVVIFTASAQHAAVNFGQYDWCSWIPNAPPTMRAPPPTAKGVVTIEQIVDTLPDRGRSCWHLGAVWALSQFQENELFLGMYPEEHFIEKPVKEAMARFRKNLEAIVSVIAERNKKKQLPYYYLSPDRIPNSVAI
Description: 5-LO assay (LTB4 by EIA). The settings on record: human PBMC. As to the method: as §1, §2

Several values for one entry are separate records, joined by “and”; a condition that tells them apart may be missing. Equal values may be shown once.

Regarding `O=C1OC(c2ccc(O)c(O)c2)C2COC(c3ccc(O)c(O)c3)C12` (single isomer, unassigned; (+)) [compound 1, (+)-3,4,3′,4′-tetrahydroxy-9,7′α-epoxylignano-7α,9′-lactone], the IC50 at 15-LO is 520 nM; on Human recombinant COX-2 it was 90.2 µM.

Consider `OCC1C(c2ccc(O)c(O)c2)OCC1C(O)c1ccc(O)c(O)c1` (single isomer, unassigned; (+)) [compound 2, (+)-3,3′-bisdemethyltanegool], for which the IC50 against 15-LO was determined as 760 nM; at Human recombinant COX-2 it was 73.9 µM.

For the compound `COc1cc2ccc(=O)oc2cc1O` [compound 7, scopoletin], the IC50 at 15-LO stood at 16500 nM.

In the case of `COc1cc2oc(=O)ccc2cc1O` [compound 8, isoscopoletin], at 15-LO, the IC50 is 15100 nM.

On to `O=c1c(O)c(-c2ccc(O)cc2)oc2cc(O)cc(O)c12` [compound 6, kaempferol], for which the IC50 is 2650 to 13800 nM and 2700 nM against 5-LO; 2200 nM against 15-LO.

For the compound `Oc1ccc(C2OCC3C(c4ccc(O)c(O)c4)OCC23)cc1O` (stereo not drawn) [compound 4, 3,3′-bisdemethylpinoresinol], the IC50 is 520 nM at 15-LO and above 100 µM on Human recombinant COX-2.

Consider `O=c1c(O)c(-c2ccc(O)c(O)c2)oc2cc(O)cc(O)c12` [compound 5, quercetin], for which the IC50 on 15-LO stood at 430 nM; at Human recombinant COX-2, 28.6 µM.

(Values after US20080226758A1, “Lipoxygenase and Cyclooxygenase Inhibition” (priority 2006, published 2008).)
